From ChEMBL document CHEMBL4229413, “Identification by Inverse Virtual Screening of magnolol-based scaffold as new tankyrase-2 inhibitors” (Bioorg Med Chem, 2018)
Active and inactive are the calls of the source. No cut-off for these calls is given here.

Key:
A549 [1] = test system: A549
Description: (§1) Growth inhibition of human A549 cells after 72 hrs by MTT assay

[2] = target: T1, Bromodomain-containing protein 9 (Homo sapiens) (UniProt Q9H8M2); assay: Binding affinity to BRD9 (unknown origin) by surface plasmon resonance analysis
T1 sequence (whole entry): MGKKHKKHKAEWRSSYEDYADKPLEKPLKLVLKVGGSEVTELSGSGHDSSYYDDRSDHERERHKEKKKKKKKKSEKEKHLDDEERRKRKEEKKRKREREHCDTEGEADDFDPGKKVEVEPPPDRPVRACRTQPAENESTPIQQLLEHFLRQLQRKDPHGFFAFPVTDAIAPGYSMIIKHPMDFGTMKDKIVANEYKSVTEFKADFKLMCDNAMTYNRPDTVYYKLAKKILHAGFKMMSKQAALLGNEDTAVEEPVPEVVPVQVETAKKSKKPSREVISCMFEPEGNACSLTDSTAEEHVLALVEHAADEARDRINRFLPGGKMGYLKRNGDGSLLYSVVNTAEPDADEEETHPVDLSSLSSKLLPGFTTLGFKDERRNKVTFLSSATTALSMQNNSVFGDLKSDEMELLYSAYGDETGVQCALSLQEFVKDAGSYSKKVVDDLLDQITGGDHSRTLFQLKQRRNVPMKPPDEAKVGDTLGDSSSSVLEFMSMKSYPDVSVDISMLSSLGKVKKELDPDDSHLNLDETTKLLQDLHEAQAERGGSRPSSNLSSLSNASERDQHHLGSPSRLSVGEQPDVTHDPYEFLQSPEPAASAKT

[3] = target: Poly [ADP-ribose] polymerase 1 (Homo sapiens, UniProt P09874); assay: Binding affinity to recombinant human PARP1 expressed in baculovirus infected Sf9 cells by surface plasmon resonance analysis
[4] = target: T2, Poly [ADP-ribose] polymerase tankyrase-1 (Homo sapiens, UniProt O95271); assay: Binding affinity to recombinant human N-terminal GSt-tagged TNKS1 (1000 to 1328 residues) expressed in baculovirus infected Sf9 cells by surface plasmon resonance analysis
T2 sequence (O95271 whole entry): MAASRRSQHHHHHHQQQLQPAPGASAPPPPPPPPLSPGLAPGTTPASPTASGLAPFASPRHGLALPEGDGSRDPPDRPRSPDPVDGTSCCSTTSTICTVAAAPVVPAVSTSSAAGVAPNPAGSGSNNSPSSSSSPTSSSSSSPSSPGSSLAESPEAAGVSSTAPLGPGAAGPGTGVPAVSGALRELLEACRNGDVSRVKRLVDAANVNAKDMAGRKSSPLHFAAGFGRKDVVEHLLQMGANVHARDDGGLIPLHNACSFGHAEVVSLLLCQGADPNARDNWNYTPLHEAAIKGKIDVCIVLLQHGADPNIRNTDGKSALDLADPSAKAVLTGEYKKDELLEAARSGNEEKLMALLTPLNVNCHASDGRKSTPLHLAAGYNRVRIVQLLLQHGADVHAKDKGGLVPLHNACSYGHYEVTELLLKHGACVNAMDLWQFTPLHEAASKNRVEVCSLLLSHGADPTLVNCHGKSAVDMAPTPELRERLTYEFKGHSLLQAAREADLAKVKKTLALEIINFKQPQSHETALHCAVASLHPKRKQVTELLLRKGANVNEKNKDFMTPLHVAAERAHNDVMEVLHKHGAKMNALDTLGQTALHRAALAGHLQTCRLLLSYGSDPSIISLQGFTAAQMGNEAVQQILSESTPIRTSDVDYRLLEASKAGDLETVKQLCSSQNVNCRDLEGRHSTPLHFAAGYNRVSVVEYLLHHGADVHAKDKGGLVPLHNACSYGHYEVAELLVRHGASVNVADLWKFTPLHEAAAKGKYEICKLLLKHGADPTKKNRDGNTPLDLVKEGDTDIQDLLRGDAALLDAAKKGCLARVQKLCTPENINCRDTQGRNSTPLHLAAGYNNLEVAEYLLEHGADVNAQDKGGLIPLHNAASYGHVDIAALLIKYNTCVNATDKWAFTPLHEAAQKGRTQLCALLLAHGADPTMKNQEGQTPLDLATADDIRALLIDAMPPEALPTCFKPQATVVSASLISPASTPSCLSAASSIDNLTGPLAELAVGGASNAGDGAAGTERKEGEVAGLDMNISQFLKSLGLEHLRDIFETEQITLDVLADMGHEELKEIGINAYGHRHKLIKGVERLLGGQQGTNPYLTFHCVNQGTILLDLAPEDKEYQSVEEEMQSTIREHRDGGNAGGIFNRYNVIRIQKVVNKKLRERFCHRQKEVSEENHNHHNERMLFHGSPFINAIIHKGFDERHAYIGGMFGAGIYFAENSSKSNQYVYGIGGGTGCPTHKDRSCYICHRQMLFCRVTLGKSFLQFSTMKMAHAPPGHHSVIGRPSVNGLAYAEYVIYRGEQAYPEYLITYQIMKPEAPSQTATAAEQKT

[5] = target: Casein kinase II alpha/beta (Homo sapiens, UniProt P67870+P68400); assay: Binding affinity to recombinant human CK2alpha/beta expressed in Escherichia coli by surface plasmon resonance analysis
A549 [6] = assay: Antiproliferative activity against human A549 cells assessed as effect on cell viability at 100 uM after 72 hrs by MTT assay relative to control; format: functional
[7] = target: T3, Poly [ADP-ribose] polymerase tankyrase-2 (Homo sapiens, UniProt Q9H2K2); assay: Binding affinity to recombinant human N-terminal His-tagged TNKS2 (Ser959 to Gly1166 residues) expressed in Escherichia coli by surface plasmon resonance analysis
T3 sequence (Q9H2K2 whole entry): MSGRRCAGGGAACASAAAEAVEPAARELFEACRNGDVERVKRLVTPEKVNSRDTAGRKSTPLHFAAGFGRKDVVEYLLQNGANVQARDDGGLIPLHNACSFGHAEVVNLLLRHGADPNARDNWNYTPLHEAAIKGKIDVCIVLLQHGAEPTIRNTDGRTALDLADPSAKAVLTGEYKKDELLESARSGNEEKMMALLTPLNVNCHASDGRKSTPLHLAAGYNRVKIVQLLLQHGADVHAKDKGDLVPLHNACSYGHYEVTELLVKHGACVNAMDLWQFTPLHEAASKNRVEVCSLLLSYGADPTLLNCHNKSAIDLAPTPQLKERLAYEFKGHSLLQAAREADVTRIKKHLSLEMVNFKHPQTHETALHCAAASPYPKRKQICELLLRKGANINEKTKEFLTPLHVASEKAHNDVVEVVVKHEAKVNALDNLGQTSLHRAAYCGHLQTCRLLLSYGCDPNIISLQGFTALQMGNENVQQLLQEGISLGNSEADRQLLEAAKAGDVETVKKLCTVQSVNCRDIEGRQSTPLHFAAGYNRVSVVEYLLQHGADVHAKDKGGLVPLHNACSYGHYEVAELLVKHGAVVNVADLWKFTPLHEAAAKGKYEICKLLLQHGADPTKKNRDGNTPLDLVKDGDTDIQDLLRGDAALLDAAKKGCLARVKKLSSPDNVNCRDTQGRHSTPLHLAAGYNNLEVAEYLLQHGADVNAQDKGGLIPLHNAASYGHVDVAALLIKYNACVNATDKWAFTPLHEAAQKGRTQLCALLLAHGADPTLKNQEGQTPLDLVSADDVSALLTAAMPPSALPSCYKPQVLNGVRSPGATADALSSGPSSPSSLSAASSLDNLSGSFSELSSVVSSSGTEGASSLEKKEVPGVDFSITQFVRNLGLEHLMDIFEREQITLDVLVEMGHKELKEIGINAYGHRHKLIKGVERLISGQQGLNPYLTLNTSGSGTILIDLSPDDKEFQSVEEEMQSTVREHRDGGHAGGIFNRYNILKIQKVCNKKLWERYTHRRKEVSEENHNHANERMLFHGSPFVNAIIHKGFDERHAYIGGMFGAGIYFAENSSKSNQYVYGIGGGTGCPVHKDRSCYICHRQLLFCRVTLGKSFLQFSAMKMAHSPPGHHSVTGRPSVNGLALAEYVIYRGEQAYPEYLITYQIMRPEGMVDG

A549 [8] = assay: cells; conditions: Homo sapiens, A549, 72 h
Description: as §1

Sequence of Casein kinase II alpha/beta (P67870 whole entry): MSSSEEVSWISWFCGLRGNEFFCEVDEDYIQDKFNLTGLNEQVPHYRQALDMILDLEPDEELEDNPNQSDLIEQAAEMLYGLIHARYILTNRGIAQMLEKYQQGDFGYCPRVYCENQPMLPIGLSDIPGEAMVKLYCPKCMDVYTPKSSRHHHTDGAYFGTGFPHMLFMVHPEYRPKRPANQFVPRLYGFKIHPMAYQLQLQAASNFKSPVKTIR
Sequence of Casein kinase II alpha/beta (P68400 whole entry): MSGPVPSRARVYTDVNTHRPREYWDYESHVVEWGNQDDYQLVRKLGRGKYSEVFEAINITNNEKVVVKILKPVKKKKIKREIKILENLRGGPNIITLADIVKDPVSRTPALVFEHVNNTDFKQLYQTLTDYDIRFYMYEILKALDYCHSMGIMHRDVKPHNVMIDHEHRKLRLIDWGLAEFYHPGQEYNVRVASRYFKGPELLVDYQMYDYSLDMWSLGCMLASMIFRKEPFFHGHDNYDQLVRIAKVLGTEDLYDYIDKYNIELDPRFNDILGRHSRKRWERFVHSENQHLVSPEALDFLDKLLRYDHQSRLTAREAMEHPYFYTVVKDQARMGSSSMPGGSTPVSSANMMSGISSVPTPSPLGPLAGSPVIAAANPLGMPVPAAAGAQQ
Sequence of Poly [ADP-ribose] polymerase 1 (P09874 whole entry, the tested form may be a part): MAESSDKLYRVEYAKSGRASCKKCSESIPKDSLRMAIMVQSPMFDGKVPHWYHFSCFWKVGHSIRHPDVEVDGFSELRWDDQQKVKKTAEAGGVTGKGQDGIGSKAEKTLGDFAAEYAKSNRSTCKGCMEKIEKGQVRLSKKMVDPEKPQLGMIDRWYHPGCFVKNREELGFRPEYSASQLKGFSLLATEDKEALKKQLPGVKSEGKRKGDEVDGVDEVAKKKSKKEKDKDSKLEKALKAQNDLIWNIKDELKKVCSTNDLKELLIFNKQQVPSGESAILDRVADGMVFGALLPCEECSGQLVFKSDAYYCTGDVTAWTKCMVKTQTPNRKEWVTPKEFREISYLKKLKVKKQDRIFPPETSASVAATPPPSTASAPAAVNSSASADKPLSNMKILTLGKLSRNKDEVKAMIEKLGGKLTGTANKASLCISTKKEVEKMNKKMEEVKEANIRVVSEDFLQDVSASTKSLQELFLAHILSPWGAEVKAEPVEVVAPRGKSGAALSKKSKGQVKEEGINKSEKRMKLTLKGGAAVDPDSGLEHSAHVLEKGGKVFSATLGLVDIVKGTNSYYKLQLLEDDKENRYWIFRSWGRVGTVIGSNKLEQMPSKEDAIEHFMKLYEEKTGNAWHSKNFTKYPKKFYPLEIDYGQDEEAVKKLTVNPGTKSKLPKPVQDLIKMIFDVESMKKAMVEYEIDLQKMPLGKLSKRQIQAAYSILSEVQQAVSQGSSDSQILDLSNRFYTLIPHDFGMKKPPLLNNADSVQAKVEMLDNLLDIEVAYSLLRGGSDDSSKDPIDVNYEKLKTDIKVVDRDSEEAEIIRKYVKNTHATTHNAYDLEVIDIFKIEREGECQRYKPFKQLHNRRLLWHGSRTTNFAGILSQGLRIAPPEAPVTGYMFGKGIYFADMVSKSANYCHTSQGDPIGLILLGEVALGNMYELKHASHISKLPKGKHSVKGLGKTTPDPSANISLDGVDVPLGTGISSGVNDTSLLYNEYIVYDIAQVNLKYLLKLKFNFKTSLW

| SMILES | IC50 (A549 [1]) | Activity [2] | Kd ([3]; sf9) | Kd ([4]; sf9) | Kd [5] | Kd ([7]; read-out: Kd) [nM] | IC50 (A549 [8]) [nM] | Kd ([4]; read-out: Kd) [nM] | Kd [7] | Kd ([3]; read-out: Kd) [nM] | Activity (A549 [6]) |
| --- | --- | --- | --- | --- | --- | --- | --- | --- | --- | --- | --- |
| COc1cc(CCCOC(C)=O)cc(-c2cc(CCCOC(C)=O)cc(OC)c2O)c1O | Not Active | inactive | Not Active | Not Active | Not Active | 6.5 |  |  |  |  | 20 - 30% |
| Oc1nc(-c2ccc(C(F)(F)F)cc2)nc2c1CSCC2 |  |  |  |  |  |  | 12300 |  |  |  |  |
| C=CCc1cc(O)c(O)c(-c2cc(CC=C)cc(OC)c2O)c1 |  | inactive | Not Active |  | Not Active | 21 | 4700 | 520 |  |  |  |
| COc1cc(CCCO)cc(-c2cc(CCCO)cc(OC)c2O)c1O | Not Active | inactive | Not Active | Not Active | Not Active | 18.5 |  |  |  |  | 20 - 30% |

The next lines start with results.

| IC50 (A549 [1]) | Activity [2] | Kd ([3]; sf9) | Kd ([4]; sf9) | Kd [5] | Kd ([7]; read-out: Kd) [nM] | IC50 (A549 [8]) [nM] | Kd ([4]; read-out: Kd) [nM] | Kd [7] | Kd ([3]; read-out: Kd) [nM] | SMILES | Activity (A549 [6]) |
| --- | --- | --- | --- | --- | --- | --- | --- | --- | --- | --- | --- |
|  | inactive | Not Active | Not Active | Not Active |  |  |  | Not Active |  | C=CCc1ccc(O)c(-c2cc(CC=C)ccc2O)c1 [MAGNOLOL] |  |
|  | inactive |  |  | Not Active |  |  | 5260 | Not Active | 1250 | C=CCc1ccc(O)c(-c2cc(CC=C)cc(O)c2O)c1 |  |
